Measurements: ChEMBL document CHEMBL1944557 (Bioorg Med Chem, 2012)

What was measured:
[1] = biological target: T1, 5-hydroxytryptamine receptor 2C (Homo sapiens, UniProt P28335); test: Binding affinity at 5-HT2C receptor by radioligand displacement assay
T1 sequence (P28335 whole entry): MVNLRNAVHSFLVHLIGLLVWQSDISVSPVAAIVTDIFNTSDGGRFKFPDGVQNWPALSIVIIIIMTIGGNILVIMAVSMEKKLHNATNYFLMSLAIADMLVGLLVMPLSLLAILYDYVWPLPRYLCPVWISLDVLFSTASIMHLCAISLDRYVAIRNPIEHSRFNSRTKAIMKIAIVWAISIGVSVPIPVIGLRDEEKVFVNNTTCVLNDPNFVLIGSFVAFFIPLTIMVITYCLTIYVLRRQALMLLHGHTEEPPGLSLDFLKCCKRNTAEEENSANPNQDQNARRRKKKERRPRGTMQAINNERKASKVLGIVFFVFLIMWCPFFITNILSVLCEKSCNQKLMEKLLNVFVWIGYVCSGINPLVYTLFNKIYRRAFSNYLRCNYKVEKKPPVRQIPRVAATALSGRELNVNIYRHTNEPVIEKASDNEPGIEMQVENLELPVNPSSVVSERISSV

[2] = biological target: Histamine H1 receptor (Homo sapiens, UniProt P35367); test: Displacement of [3H]-Pyrilamine from human histamine H1 receptor by liquid scintillation counter
Chain of Histamine H1 receptor (P35367 whole entry): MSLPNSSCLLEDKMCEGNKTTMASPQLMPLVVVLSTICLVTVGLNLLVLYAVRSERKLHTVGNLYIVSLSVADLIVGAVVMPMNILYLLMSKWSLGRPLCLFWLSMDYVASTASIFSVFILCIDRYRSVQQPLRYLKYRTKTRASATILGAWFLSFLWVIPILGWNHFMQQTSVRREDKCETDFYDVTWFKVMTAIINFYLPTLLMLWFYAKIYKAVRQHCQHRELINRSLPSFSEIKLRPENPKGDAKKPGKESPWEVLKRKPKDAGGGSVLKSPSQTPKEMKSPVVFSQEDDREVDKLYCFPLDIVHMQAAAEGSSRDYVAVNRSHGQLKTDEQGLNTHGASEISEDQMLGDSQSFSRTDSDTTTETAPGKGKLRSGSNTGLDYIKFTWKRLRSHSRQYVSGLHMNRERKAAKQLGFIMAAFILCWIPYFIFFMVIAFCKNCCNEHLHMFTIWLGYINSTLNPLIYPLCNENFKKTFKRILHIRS

[3] = biological target: 5-hydroxytryptamine receptor 2A (Homo sapiens, UniProt P28223); test: Binding affinity at 5-HT2A receptor by radioligand displacement assay
Chain of 5-hydroxytryptamine receptor 2A (P28223 whole entry): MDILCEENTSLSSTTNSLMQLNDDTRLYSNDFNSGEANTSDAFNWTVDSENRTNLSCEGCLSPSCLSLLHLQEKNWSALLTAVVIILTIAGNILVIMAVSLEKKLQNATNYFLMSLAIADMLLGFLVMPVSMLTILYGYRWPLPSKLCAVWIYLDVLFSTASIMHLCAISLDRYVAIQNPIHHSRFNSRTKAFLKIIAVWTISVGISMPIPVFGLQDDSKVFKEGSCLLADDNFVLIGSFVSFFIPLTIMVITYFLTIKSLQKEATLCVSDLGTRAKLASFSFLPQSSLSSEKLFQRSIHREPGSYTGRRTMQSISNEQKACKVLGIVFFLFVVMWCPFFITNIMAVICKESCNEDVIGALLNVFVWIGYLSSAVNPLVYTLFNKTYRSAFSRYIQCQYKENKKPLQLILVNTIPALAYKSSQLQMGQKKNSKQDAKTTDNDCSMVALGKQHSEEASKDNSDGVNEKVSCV

[4] = biological target: T2, 5-hydroxytryptamine receptor 1A (Homo sapiens, UniProt P08908); test: Displacement of [3H]8-OH-DPAT from 5-HT1A receptor expressed in CHO cells after 20 mins by liquid scintillation counting; format: cell-based
T2 sequence (P08908 whole entry): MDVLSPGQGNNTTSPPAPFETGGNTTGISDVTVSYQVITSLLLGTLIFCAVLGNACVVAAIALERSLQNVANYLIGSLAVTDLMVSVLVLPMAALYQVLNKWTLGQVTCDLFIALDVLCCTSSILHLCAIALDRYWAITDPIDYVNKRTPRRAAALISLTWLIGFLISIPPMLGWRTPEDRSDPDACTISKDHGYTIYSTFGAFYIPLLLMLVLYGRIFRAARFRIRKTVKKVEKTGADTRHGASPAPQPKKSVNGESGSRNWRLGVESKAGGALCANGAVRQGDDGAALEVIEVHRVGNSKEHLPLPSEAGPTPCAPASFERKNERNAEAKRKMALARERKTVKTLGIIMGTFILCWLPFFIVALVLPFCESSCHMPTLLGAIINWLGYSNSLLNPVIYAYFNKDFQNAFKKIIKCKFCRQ

[5] = biological target: D(2) dopamine receptor (Homo sapiens, UniProt P14416); test: Displacement of [3H]-N-methylspiperone from dopamine D2 receptor expressed in […] MES-23.5 cells; format: cell-based
Chain of D(2) dopamine receptor (P14416 whole entry): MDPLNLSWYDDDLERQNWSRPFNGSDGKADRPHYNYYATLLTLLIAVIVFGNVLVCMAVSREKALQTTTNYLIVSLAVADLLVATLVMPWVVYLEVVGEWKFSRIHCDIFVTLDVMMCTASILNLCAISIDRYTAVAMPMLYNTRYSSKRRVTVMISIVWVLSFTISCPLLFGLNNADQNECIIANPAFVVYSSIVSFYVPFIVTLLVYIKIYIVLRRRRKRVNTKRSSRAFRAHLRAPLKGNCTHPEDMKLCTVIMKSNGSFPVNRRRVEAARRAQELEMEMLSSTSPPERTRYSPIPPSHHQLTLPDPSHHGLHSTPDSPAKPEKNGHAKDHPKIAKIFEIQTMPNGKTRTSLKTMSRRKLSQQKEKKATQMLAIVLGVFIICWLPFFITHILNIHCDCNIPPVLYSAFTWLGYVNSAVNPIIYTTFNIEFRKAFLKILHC

[6] = biological target: D(3) dopamine receptor (Homo sapiens, UniProt P35462); test: Displacement of [3H]-N-methylspiperone from dopamine D3 receptor expressed in […] MES-23.5
Chain of D(3) dopamine receptor (P35462 whole entry): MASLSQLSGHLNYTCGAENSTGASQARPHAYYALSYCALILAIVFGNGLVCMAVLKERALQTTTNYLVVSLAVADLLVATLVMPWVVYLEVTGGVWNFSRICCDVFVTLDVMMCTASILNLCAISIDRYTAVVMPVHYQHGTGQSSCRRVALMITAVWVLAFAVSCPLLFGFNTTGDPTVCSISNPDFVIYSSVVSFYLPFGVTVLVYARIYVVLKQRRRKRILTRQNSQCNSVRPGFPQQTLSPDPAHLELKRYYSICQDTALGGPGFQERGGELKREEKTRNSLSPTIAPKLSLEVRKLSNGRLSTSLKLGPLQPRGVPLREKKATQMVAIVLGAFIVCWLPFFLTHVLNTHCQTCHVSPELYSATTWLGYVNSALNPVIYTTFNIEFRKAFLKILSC

[7] = biological target: T3, D(4) dopamine receptor (Rattus norvegicus, UniProt P30729); test: Displacement of [3H]-N-methylspiperone from rat dopamine D4 receptor
T3 sequence (P30729 whole entry): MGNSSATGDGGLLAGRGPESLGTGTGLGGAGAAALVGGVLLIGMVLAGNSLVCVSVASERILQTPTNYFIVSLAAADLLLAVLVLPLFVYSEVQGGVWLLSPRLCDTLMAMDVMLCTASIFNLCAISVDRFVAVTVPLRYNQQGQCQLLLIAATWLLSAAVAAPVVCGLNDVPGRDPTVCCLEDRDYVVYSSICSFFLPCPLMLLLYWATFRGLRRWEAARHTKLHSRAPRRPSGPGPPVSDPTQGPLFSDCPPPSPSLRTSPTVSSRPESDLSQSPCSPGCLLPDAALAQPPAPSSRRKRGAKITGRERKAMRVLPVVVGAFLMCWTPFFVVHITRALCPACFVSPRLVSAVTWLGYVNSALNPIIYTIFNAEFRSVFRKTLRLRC

SMILES	Ki ([1]; read-out: Ki)	Ki ([2]; read-out: Ki)	Ki ([3]; read-out: Ki)	Ki ([4]; cho)	Ki [1]	Ki [5]	Ki [6]	Ki [7]	Ki [2]	Ki [3]	Ki ([5]; read-out: Ki)	Ki ([4]; read-out: Ki)
Fc1ccc(OCCCN2CCCN(c3ccc(Cl)cc3)CC2)cc1	> 10 µM	0.509 µM	0.567 µM	–	–	–	–	–	–	–	–	–
Fc1ccc(SCCCN2CCCN(c3ccc(Cl)cc3)CC2)cc1	2.53 µM	0.8 µM	0.163 µM	–	–	–	–	–	–	–	–	–
O=C(CCCN1CCCN(c2ccc(Cl)cc2)CC1)c1nc2ccccc2s1	–	–	1.04 µM	Not Active	Not Active	Not Active	0.777 µM	0.126 µM	–	–	–	–
Clc1ccc(N2CCCN(Cc3nc4ccccc4s3)CC2)cc1	–	–	–	Not Active	Not Active	–	–	–	Not Active	Not Active	–	–
Fc1ccc(CCCCN2CCCN(c3ccc(Cl)cc3)CC2)cc1	4.1 µM	1.25 µM	0.51 µM	–	–	–	3.04 µM	0.123 µM	–	–	0.139 µM	–
OC1(c2ccc(Cl)cc2)C[C@H]2CC[C@@H](C1)N2CCCOc1ccc(F)cc1 (stereo partly specified)	–	–	–	–	Not Active	–	–	–	–	–	–	–
Clc1ccc(N2CCCN(CCCc3nc4ccccc4s3)CC2)cc1	–	0.665 µM	0.696 µM	–	–	Not Active	0.863 µM	0.431 µM	–	–	–	0.216 µM
O=C(CCCCN1[C@@H]2CC[C@H]1CC(O)(c1ccc(Cl)cc1)C2)c1nc2ccccc2s1 (stereo partly specified)	–	–	–	Not Active	Not Active	–	–	–	–	Not Active	–	–
Clc1ccc(N2CCCN(CCCCc3nc4ccccc4s3)CC2)cc1	1.42 µM	0.061 µM	0.159 µM	–	–	–	0.152 µM	0.0286 µM	–	–	0.259 µM	0.263 µM
O=C(CCCCN1CCCN(c2ccc(Cl)cc2)CC1)c1nc2ccccc2s1	5.92 µM	0.129 µM	1 µM	–	–	–	1.05 µM	1.21 µM	–	–	1.98 µM	0.495 µM
